Laboratory results reported in PMC9045483 (RSC Advances, 2022).

How the values were obtained:
HCT116 = assay: In vitro cytotoxic activity, MTT colorimetric assay, HCT116; assay type: cell-based; settings: Homo sapiens, HCT-116, read-out: IC50 HCT116
A549 = assay: In vitro cytotoxic activity, MTT colorimetric assay, A549; assay type: cell-based; settings: Homo sapiens, A549, read-out: IC50 A549
HepG2 = assay: In vitro cytotoxic activity, MTT colorimetric assay, HepG2; assay type: cell-based; settings: Homo sapiens, HepG2, read-out: IC50 HepG2
MCF-7 = assay: In vitro cytotoxic activity, MTT colorimetric assay, MCF-7; assay type: cell-based; settings: Homo sapiens, MCF7, read-out: IC50 MCF-7
EGFR^T790M = EGFR^T790M (Homo sapiens, UniProt P00533, T790M); assay: EGFR^T790M kinase inhibitory assay; assay type: biochemical
Chain of EGFR^T790M (P00533 25-1210 T790M): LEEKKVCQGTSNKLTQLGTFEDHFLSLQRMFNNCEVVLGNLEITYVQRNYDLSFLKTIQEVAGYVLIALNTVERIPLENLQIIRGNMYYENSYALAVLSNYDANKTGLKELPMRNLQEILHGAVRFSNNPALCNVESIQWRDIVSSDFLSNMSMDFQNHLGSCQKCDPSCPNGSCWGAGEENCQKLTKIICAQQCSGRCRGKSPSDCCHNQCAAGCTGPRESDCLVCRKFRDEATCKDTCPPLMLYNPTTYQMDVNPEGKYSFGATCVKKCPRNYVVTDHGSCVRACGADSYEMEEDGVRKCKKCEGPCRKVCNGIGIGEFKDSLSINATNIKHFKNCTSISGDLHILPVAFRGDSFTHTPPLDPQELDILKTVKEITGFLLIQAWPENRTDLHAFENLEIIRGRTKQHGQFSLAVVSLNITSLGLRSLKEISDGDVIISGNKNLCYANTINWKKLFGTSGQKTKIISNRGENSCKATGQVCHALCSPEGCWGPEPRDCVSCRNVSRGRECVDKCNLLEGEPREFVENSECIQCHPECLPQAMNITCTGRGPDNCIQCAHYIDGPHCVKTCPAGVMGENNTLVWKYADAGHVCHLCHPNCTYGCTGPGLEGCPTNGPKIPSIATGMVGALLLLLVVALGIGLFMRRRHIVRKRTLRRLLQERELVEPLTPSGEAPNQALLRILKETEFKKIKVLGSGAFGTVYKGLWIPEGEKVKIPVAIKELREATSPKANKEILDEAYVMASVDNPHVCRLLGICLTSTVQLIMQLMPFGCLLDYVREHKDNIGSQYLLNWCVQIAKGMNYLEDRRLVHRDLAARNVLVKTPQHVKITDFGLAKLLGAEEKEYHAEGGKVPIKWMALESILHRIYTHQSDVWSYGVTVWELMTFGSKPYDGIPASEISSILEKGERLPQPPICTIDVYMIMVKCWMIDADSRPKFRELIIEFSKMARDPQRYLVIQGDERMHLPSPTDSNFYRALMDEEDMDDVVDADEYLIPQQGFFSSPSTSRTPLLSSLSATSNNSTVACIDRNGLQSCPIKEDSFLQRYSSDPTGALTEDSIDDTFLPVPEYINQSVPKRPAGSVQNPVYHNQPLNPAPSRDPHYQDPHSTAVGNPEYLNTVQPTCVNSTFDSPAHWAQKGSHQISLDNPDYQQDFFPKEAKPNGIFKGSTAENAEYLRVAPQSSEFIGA

VEGFR-2 = VEGFR-2 (Homo sapiens, UniProt P35968); assay: biochemical
Chain of VEGFR-2 (P35968 20-1356): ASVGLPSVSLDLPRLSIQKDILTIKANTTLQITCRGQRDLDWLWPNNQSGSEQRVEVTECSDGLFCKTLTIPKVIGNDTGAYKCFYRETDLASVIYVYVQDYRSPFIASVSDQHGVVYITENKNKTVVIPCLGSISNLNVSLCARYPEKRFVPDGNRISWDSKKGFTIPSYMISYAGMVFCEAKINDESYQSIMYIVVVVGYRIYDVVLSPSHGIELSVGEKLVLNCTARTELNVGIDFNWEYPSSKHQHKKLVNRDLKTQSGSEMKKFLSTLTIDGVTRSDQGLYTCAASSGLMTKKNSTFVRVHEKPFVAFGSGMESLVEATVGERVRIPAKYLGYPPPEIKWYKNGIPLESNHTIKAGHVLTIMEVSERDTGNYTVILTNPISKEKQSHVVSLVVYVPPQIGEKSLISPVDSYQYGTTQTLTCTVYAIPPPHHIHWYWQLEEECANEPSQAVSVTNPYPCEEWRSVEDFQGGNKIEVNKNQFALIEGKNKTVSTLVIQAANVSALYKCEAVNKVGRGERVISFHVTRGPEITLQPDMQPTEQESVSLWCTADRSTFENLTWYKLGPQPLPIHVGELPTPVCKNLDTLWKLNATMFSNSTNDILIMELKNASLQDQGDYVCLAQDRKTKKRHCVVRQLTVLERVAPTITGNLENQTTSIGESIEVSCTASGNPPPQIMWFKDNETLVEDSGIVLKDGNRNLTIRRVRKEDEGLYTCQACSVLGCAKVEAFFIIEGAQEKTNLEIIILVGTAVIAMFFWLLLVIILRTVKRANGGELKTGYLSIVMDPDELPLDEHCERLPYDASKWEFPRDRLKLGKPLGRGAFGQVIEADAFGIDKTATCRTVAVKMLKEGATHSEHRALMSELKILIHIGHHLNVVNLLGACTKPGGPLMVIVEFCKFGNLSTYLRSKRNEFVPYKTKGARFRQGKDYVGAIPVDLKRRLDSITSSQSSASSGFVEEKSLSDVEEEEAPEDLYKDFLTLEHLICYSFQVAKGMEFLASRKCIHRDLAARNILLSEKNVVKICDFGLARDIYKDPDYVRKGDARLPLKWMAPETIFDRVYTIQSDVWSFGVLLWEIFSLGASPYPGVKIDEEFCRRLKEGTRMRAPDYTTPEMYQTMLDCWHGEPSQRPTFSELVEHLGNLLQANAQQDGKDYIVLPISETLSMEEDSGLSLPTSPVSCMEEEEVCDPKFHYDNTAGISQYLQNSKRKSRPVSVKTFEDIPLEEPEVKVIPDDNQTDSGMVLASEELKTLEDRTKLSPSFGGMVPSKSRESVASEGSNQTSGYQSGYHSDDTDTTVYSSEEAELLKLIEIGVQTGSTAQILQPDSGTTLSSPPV

Row | Compound | IC50 (HCT116) | IC50 (A549) | IC50 (HepG2) | IC50 (MCF-7) | IC50 (EGFR^T790M) | IC50 (VEGFR-2)
1 | O=C1NC(=O)C(=Cc2ccco2)S1 [Compound 3, 5-(furan-2-ylmethylene)thiazolidine-2,4-dione] | 58.2 µM |  |  |  |  | 
2 | O=C(CN1C(=O)SC(=Cc2cccs2)C1=O)Nc1ccccc1 [Compound 4a, 2-[2,4-Dioxo-5-(thiophen-2-ylmethylene)thiazolidin-3-yl]-N-phenylacetamide] | 58.2 ± 0.7 µM | 51 ± 2.5 µM | 52.1 ± 5.2 µM | 63.6 ± 3.8 µM |  | 
3 | O=C(CN1C(=O)SC(=Cc2cccs2)C1=O)Nc1ccc(Cl)cc1 [Compound 4b, N-(4-Chlorophenyl)-2-[2,4-dioxo-5-(thiophen-2-ylmethylene)thiazolidin-3-yl]acetamide] | 38.4 ± 3.9 µM | 36.1 ± 1.9 µM | 35.4 ± 5.1 µM | 36.9 ± 1.3 µM |  | 
4 | O=C(CN1C(=O)SC(=Cc2cccs2)C1=O)Nc1ccc(F)cc1 [Compound 4c, 2-[2,4-Dioxo-5-(thiophen-2-ylmethylene)thiazolidin-3-yl]-N-(4-fluorophenyl)acetamide] | 42.5 ± 3.9 µM | 38.3 ± 1.9 µM | 34.2 ± 5.1 µM | 39 ± 1.3 µM |  | 
5 | O=C(CN1C(=O)SC(=Cc2cccs2)C1=O)Nc1ccc(Br)cc1 [Compound 4d, N-(4-Bromophenyl)-2-[2,4-dioxo-5-(thiophen-2-ylmethylene)thiazolidin-3-yl]acetamide] | 16.6 ± 3.9 µM | 19 ± 3.9 µM | 13.5 ± 3.9 µM | 22.7 ± 3.9 µM | 0.42 µM | 0.255 µM
6 | Cc1ccc(NC(=O)CN2C(=O)SC(=Cc3cccs3)C2=O)cc1 [Compound 4e, 2-[2,4-Dioxo-5-(thiophen-2-ylmethylene)thiazolidin-3-yl]-N-(p-tolyl)acetamide] | 21.3 ± 3.9 µM | 34 ± 3.9 µM | 24.5 ± 3.9 µM | 25.2 ± 3.9 µM |  | 
7 | COc1ccc(NC(=O)CN2C(=O)SC(=Cc3cccs3)C2=O)cc1 [Compound 4f, 2-[2,4-Dioxo-5-(thiophen-2-ylmethylene)thiazolidin-3-yl]-N-(4-methoxyphenyl)acetamide] | 17.7 ± 3.9 µM | 22.7 ± 3.9 µM | 10.2 ± 3.9 µM | 22.3 ± 3.9 µM | 0.36 µM | 
8 | O=C(CN1C(=O)SC(=Cc2cccs2)C1=O)Nc1ccc(C(=O)O)cc1 [Compound 4g, 4-{2-[2,4-Dioxo-5-(thiophen-2-ylmethylene)thiazolidin-3-yl]acetamido}benzoic acid] | 11.2 ± 3.9 µM | 12.9 ± 3.9 µM | 6.22 ± 3.9 µM | 10.7 ± 3.9 µM | 0.23 µM | 
9 | O=C(CN1C(=O)SC(=Cc2ccco2)C1=O)Nc1ccccc1 [Compound 5a, 2-[5-(Furan-2-ylmethylene)-2,4-dioxothiazolidin-3-yl]-N-phenylacetamide] | 48.3 ± 0.7 µM | 53.2 ± 2.5 µM | 52.1 ± 5.2 µM | 59.6 ± 3.8 µM |  | 
10 | O=C(CN1C(=O)SC(=Cc2ccco2)C1=O)Nc1ccc(Cl)cc1 [Compound 5b, N-(4-Chlorophenyl)-2-[5-(furan-2-ylmethylene)-2,4-dioxothiazolidin-3-yl]acetamide] | 28.2 ± 3.9 µM | 36.2 ± 3.9 µM | 23.8 ± 3.9 µM | 25.7 ± 3.9 µM |  | 
11 | O=C(CN1C(=O)SC(=Cc2ccco2)C1=O)Nc1ccc(F)cc1 [Compound 5c, N-(4-Fluorophenyl)-2-[5-(furan-2-ylmethylene)-2,4-dioxothiazolidin-3-yl]acetamide] | 35.7 ± 3.9 µM | 35.4 ± 1.9 µM | 24.1 ± 2.5 µM | 28.6 ± 1.3 µM |  | 
12 | Cc1ccc(NC(=O)CN2C(=O)SC(=Cc3ccco3)C2=O)cc1 [Compound 5d, 2-[5-(Furan-2-ylmethylene)-2,4-dioxothiazolidin-3-yl]-N-(p-tolyl)acetamide] | 26.4 ± 1.4 µM | 29.7 ± 4.1 µM | 23.6 ± 3.9 µM | 25.3 ± 4.5 µM |  | 0.276 µM
13 | CC(C)c1ccc(NC(=O)CN2C(=O)SC(=Cc3ccco3)C2=O)cc1 [Compound 5e, 2-[5-(Furan-2-ylmethylene)-2,4-dioxothiazolidin-3-yl]-N-(4-isopropylphenyl)acetamide] | 10.7 ± 3.9 µM | 32.9 ± 3.9 µM | 23.8 ± 3.9 µM | 14.5 ± 3.9 µM | 0.41 µM | 0.263 µM
14 | COc1ccc(NC(=O)CN2C(=O)SC(=Cc3ccco3)C2=O)cc1 [Compound 5f, 2-[5-(Furan-2-ylmethylene)-2,4-dioxothiazolidin-3-yl]-N-(4-methoxyphenyl)acetamide] | 15.7 ± 3.9 µM | 13 ± 3.9 µM | 11 ± 3.9 µM | 18.5 ± 3.9 µM | 0.35 µM | 0.247 µM
15 | O=C(CN1C(=O)SC(=Cc2ccco2)C1=O)Nc1ccc(C(=O)O)cc1 [Compound 5g, 4-{2-[5-(Furan-2-ylmethylene)-2,4-dioxothiazolidin-3-yl]acetamido}benzoic acid] | 9.04 ± 3.9 µM | 7.55 ± 3.9 µM | 3.86 ± 3.9 µM | 10.7 ± 3.9 µM |  | 
16 | CNC(=O)c1cc(Oc2ccc(NC(=O)Nc3ccc(Cl)c(C(F)(F)F)c3)cc2)ccn1 [Sorafenib, sorafenib, reference compound] |  |  | 4 ± 0.33 µM |  |  | 
